Source: patent publication US4721775A, “Effective peptides related to the luteinizing hormone releasing hormone from L-amino acids” (Board of Regents, The University of Texas System, priority 1985, dated 1988)
“And” between values parts separate entries of the source, which are not always exact repeats. Equal entries are not always repeated. “Also recorded” adds a separate entry of the source. Non-standard residues stand in square brackets, D forms with d. Residues, ends and D or L forms follow the SMILES beside them. pGlu = O=C1CC[C@@H](C(=O)O)N1

Key:
Assay type in all cases: in vivo
[1] = tested on: release of LH; test: Release of LH in rats after sc injection; conditions: for LH % change: LHRH = 100; for release of LH compared with LHRH: sc injection, dose and time as stated in the source
Text: (§1) The data on the release of LH and FSH in rats by modifications of LHRH with one structural change are in Table II.
(§2) Exclusive of the salmon-LHRH, only one of the six decapeptides with two structural changes had significant activity.

[2] = tested on: release of FSH; test: Release of FSH in rats after sc injection; conditions: for FSH % change: LHRH = 100
Text: as §1, §2

[3] = tested on: release of FSH; test: Release of FSH in rats after sc injection; conditions: dose and time as stated in the source
[4] = 30 min. after sc injection, 1000 ng
[5] = 60 min. after sc injection, 3000 ng
[6] = release 30 min. after sc injection, dosage of peptide 50 ng
[7] = release 30 min. after sc injection, dosage of peptide 1000 ng
[8] = release 60 min. after sc injection, dosage of peptide 3000 ng
[9] = release 60 min. after sc injection, dosage of peptide 300 ng
[10] = 60 min. after sc injection, 300 ng
[11] = release 15 min. after sc injection, dosage of peptide 100 ng
[12] = release 15 min. after sc injection, dosage of peptide 1000 ng

CC(C)C[C@H](NC(=O)CNC(=O)[C@H](Cc1c[nH]cn1)NC(=O)[C@H](CO)NC(=O)[C@H](Cc1c[nH]c2ccccc12)NC(=O)[C@H](Cc1c[nH]cn1)NC(=O)[C@@H]1CCC(=O)N1)C(=O)N[C@@H](Cc1ccc(O)cc1)C(=O)N1CCC[C@H]1C(=O)NCC(N)=O [[His^5 Tyr^8]--LHRH, p-Glu His Trp Ser His Gly Leu Tyr Pro Gly-NH2] ([pGlu]HWSHGLYPG-NH2)
LH % change ([1]; 30 min. after sc injection, 50 ng): 3% | LH % change [1, 4]: 4% | LH % change [1, 5]: 3.4% | LH [1, 6]: 0.5 ng/mL | LH [1, 7]: 5.0 ng/mL | LH [1, 8]: 2.8 ng/mL | FSH % change [2, 4]: 3% | FSH % change [2, 5]: 42% | FSH [2, 6]: 235 ng/mL | FSH [2, 7]: 534 ng/mL | FSH [2, 8]: 495 ng/mL

CC(C)C[C@H](NC(=O)CNC(=O)[C@H](Cc1c[nH]cn1)NC(=O)[C@H](CO)NC(=O)[C@H](Cc1c[nH]c2ccccc12)NC(=O)[C@H](Cc1c[nH]cn1)NC(=O)[C@@H]1CCC(=O)N1)C(=O)N[C@@H](CCCNC(=N)N)C(=O)N1CCC[C@H]1C(=O)NCC(N)=O [[His^5]--LHRH, p-Glu His Trp Ser His Gly Leu Arg Pro Gly-NH2]
LH [1, 9]: 14 ng/mL | LH [1, 8]: 142 ± 29 ng/mL and 142 ng/mL | release of LH compared with LHRH [1]: as active as LHRH at two dose levels; also recorded: equivalent to LHRH in the release of LH | FSH % change [2, 5]: 229% | FSH [2, 9]: 652 ng/mL | FSH [2, 8]: 2684 ng/mL | release of FSH compared with LHRH [3]: twice as active as LHRH at the high dosage; also recorded: two times as effective in the release of FSH at the higher dose level

NC(=O)CC[C@H](NC(=O)[C@H](Cc1c[nH]c2ccccc12)NC(=O)CNC(=O)[C@H](Cc1ccc(O)cc1)NC(=O)[C@H](CO)NC(=O)[C@H](Cc1c[nH]c2ccccc12)NC(=O)[C@H](Cc1c[nH]cn1)NC(=O)[C@@H]1CCC(=O)N1)C(=O)N1CCC[C@H]1C(=O)NCC(N)=O [[Trp^7 Gln^8]--LHRH, p-Glu His Trp Ser Tyr Gly Trp Gln Pro Gly-NH2] ([pGlu]HWSYGWQPG-NH2)
LH % change ([1]; 15 min. after sc injection, 100 ng): 29% | LH % change ([1]; 15 min. after sc injection, 1000 ng): 60% | LH % change [1, 10]: 29% | LH % change [1, 5]: 9.1% | LH [1, 11]: 7 ng/mL | LH [1, 12]: 34 ng/mL | LH [1, 9]: 3.2 ng/mL | LH [1, 8]: 7.5 ng/mL | FSH % change [2, 10]: 58% | FSH % change [2, 5]: 40% | FSH [2, 11]: 421 ng/mL | FSH [2, 12]: 502 ng/mL | FSH [2, 9]: 345 ng/mL | FSH [2, 8]: 474 ng/mL

NC(=O)CNC(=O)[C@@H]1CCCN1C(=O)[C@H](Cc1ccc(O)cc1)NC(=O)[C@H](Cc1c[nH]c2ccccc12)NC(=O)CNC(=O)[C@H](Cc1ccc(O)cc1)NC(=O)[C@H](CO)NC(=O)[C@H](Cc1c[nH]c2ccccc12)NC(=O)[C@H](Cc1c[nH]cn1)NC(=O)[C@@H]1CCC(=O)N1 [[Trp^7 Tyr^8]--LHRH, p-Glu His Trp Ser Tyr Gly Trp Tyr Pro Gly-NH2] ([pGlu]HWSYGWYPG-NH2)
LH % change [1, 10]: 25% | LH % change [1, 5]: 4.6% | LH [1, 9]: 2.8 ng/mL | LH [1, 8]: 3.8 ng/mL | FSH % change [2, 10]: 35% | FSH % change [2, 5]: 30% | FSH [2, 9]: 209 ng/mL | FSH [2, 8]: 352 ng/mL

CC(C)C[C@H](NC(=O)CNC(=O)[C@H](Cc1ccc(O)cc1)NC(=O)[C@H](CO)NC(=O)[C@H](Cc1c[nH]c2ccccc12)NC(=O)[C@H](Cc1c[nH]cn1)NC(=O)[C@@H]1CCC(=O)N1)C(=O)N[C@@H](Cc1ccc(O)cc1)C(=O)N1CCC[C@H]1C(=O)NCC(N)=O [[Tyr^8]--LHRH, p-Glu His Trp Ser Tyr Gly Leu Tyr Pro Gly-NH2]
LH % change [1, 10]: 23% | LH % change [1, 5]: 3% | LH [1, 9]: 2.5 ng/mL | LH [1, 8]: 2.7 ng/mL | release of LH compared with LHRH [1]: relatively low activities | FSH % change [2, 10]: 48% | FSH % change [2, 5]: 38% | FSH [2, 9]: 285 ng/mL | FSH [2, 8]: 449 ng/mL | release of FSH compared with LHRH ([2]; sc injection, dose and time as stated in the source): relatively low activities
